The subject of one data set is H211. The data set is described as follows: SCLC cell growth inhibition (WST-8), H211. Type of data set: cell-based. Conditions: Homo sapiens, NCI-H211; 96-h incubation, means ± SD (n = 3–6). The procedure: (§1) All the SCLC cell lines were purchased from American Type Culture Collection (Manassas, VA) and cultured as recommended. All these cell lines were passaged fewer than 6 months after purchase. MCL1 knockout (MCL1^−/−) MEF cells were kindly provided by Dr. David Huang (The Walter and Eliza Hall Institute of Medical Research, Melbourne, Australia). Cell growth inhibition was evaluated by means of a WST-8 assay (Dojindo, Rockville, MD) as described previously. Mitochondrial membrane potential was determined by JC-1 staining using a JC-1 Mitochondrial Membrane Potential Assay kit (Cayman). Apoptosis analysis was performed using an Annexin V/propidium iodide (PI) apoptosis detection kit (Roche Applied Sciences, Indianapolis, IN).

A further data set has as its target Mcl-1 (Homo sapiens, UniProt Q07820). Nature of the data set: fluorescence-polarization (FP) binding assay, Mcl-1. The source says: BM-1197 ( Fig 1 ), was synthesized in a similar manner as described for BM-1074 [16]. We evaluated the binding affinities of BM-1197 to Bcl-2, Bcl-xL and Mcl-1 proteins using our optimized fluorescence-polarization (FP) binding assays. […] Of note, the binding affinities of these compounds to Bcl-2 and Bcl-xL proteins are close to the lower limits of the assay and their precise Ki values could not be determined accurately using our competitive, FP binding assays.

Data set [1] concerns the target Bcl-xL (Homo sapiens, UniProt Q07817). Nature of the data set: fluorescence-polarization (FP) binding assay, Bcl-xL. Conditions: means ± SD (n≥3). An excerpt:
(§2) BM-1197 ( Fig 1 ), was synthesized in a similar manner as described for BM-1074 [16]. We evaluated the binding affinities of BM-1197 to Bcl-2, Bcl-xL and Mcl-1 proteins using our optimized fluorescence-polarization (FP) binding assays.
(§3) Data are expressed as means ± SD (n≥3).

A further data set concerns the target Bcl-2 (Homo sapiens, UniProt P10415). Nature of the data set: fluorescence-polarization (FP) binding assay, Bcl-2. Conditions: means ± SD (n≥3).
Description: as §2, §3

Data set [2] relates to MCL1-deficient (MCL1−/−) MEF cells. The data set is described as follows: cell growth inhibition, WST assay, MCL1-deficient MEF. Type of data set: cell-based, mouse. The procedure: as §1
(B) MCL1^−/− cells were treated with 100 nM of BM-1197 for 16 h and stained with Annexin V/PI for flow cytometry. […] They are given in the order upper left, upper right, lower left, lower right.

The subject of another data set is H1963. The data set is described as follows: SCLC cell growth inhibition (WST-8), H1963. Type of data set: cell-based. Conditions: Homo sapiens, NCI-H1963; 96-h incubation, means ± SD (n = 3–6). The procedure:
as §1

The test system of a further data set is DMS79. Nature of the data set: SCLC cell growth inhibition (WST-8), DMS79. The format is cell-based. Conditions: Homo sapiens, DMS-79; 96-h incubation, means ± SD (n = 3–6). Here is the method:
as §1

A further data set relates to platelets. The data set is described as follows: platelet count / on-target platelet toxicity in mice. The format is in vivo. Here is the method: BM-1197 was administered by IV bolus injected into the tail vein of the mice. Mice were euthanized at different time points with CO2, then ∼0.2 ml of blood was drawn by cardiac puncture using an EDTA treated syringe, transferred to an EDTA treated tube and sent immediately for a Complete Blood Count. The samples were read at the University of Michigan Animal Diagnostic Laboratory on a HEMAVET 950FS Hematology Analyzer.
Figure 11 BM-1197 decreases platelet count in mice. BM-1197 was administered by IV bolus injected into the tail vein. At the indicated time points the mice were euthanized and blood was drawn for complete blood count. Data are mean ± SEM (n = 3).

The next data set deals with H1417. Nature of the data set: SCLC cell growth inhibition (WST-8), H1417. The format is cell-based. Conditions: Homo sapiens, NCI-H1417; 96-h incubation, means ± SD (n = 3–6). Here is the method: as §1
The test system of data set [3] is BM-1197-insensitive SCLC cell lines. The data set is described as follows: MCL1 shRNA knockdown, growth inhibition by WST assay. Conditions: MCL1 shRNA 2 days, then drug 2 days. The format is cell-based, human. Here is the method: ON-TARGETplus SMARTpools for mouse Bax and Bak and non-targeting negative control siRNAs were obtained from Dhamarcon. Transfection was performed using Lipofectamine RNAiMAX (Invitrogen). Lentiviral vector for scrambled and human MCL1 shRNA and lentivirus infection were described previously. Immunoblotting was performed using a published procedure. For immunoprecipitation assays, cells lysed with CHAPS buffer (150 mM NaCl, 10 mM HEPES [pH 7.4], 0.5% Chaps) or Triton buffer (150 mM NaCl, 10 mM HEPES [pH 7.4], 0.5% Triton X-100) supplemented with Complete protease inhibitors (Roche). Immunoprecipitation and immunoblot assays were performed with the indicated antibodies. Active Bax was detected by immunoprecipitation with the Bax 6A7 antibody, which recognizes only the conformationally changed Bax protein [27].
Figure 12 Effects of MCL1 knockdown on BM-1197-induced apoptosis. (A) Cells were transduced with lentiviral particles containing scrambled (SCR) or MCL1-specific shRNAs for 2 days, then treated with BM-1197 for 2 days. The growth-inhibitory activity of BM-1197 was assessed by WST assay. Data are representative of three independent experiments. (B) Cells were transduced with lentiviral particles containing scrambled (SCR) or MCL1-specific shRNAs for 2 days then treated with BM-1197 (100 nM) for 20 h before harvested for immunoblotting.

The next data set concerns H889. Nature of the data set: SCLC cell growth inhibition (WST-8), H889. The format is cell-based. Conditions: Homo sapiens, NCI-H889; 96-h incubation, means ± SD (n = 3–6). Here is the method:
as §1

The subject of the next data set is H187. Nature of the data set: SCLC cell growth inhibition (WST-8), H187. The format is cell-based. Conditions: Homo sapiens, NCI-H187; 96-h incubation, means ± SD (n = 3–6). The procedure: as §1
For a further data set, the system named is SW1271. The data set is described as follows: SCLC cell growth inhibition (WST-8), SW1271. The format is cell-based. Conditions: Homo sapiens, 96-h incubation, means ± SD (n = 3–6). Here is the method: as §1
In a further data set the test system is DMS273. Nature of the data set: SCLC cell growth inhibition (WST-8), DMS273. The format is cell-based. Conditions: Homo sapiens, DMS-273; 96-h incubation, means ± SD (n = 3–6). Here is the method:
as §1

The target in data set [4] is T1, Bcl-xL (Mus musculus, UniProt Q64373).
T1 construct: endogenous in cells; host or cells: MEF MCL1-/- cells
T1 sequence (Q64373 whole entry): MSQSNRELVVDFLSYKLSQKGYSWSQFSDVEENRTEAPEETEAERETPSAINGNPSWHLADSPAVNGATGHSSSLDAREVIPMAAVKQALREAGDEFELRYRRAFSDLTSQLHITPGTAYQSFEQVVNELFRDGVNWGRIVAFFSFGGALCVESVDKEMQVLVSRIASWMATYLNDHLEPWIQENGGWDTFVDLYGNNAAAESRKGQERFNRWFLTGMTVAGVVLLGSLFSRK
Nature of the data set: cellular thermal shift assay (CETSA), Bcl-xL. The format is cell-based. Conditions: MEF MCL1−/− cells. Here is the method: Drug-target engagement was assessed using CETSA as described by Molina et al.. Briefly, cells were treated with drugs for 1 h, then harvested, washed with PBS, and resuspended in PBS. The resuspended cells were freeze-thawed 4 times. The soluble fraction (lysate) was separated from cell debris by centrifugation at 20000×g for 20 minutes at 4°C and then analyzed by Western blots.
Drug-treated cells were heated at gradient temperature from 42°C to 62°C for 3 min then freeze-thawed 4 times. The soluble fractions of the lysed cells were analyzed by immunoblotting. (B) MEF MCL1^− ^/− cells were treated with drugs at the indicated doses for 1 h before collected for CETSA.

Molecules are shown by their SMILES. “And” between values parts separate entries of the source, which are not always exact repeats. Equal values may be shown once. A value given as a limit tells only on which side of the number the result lay.

Sequence of Bcl-2 (P10415 whole entry): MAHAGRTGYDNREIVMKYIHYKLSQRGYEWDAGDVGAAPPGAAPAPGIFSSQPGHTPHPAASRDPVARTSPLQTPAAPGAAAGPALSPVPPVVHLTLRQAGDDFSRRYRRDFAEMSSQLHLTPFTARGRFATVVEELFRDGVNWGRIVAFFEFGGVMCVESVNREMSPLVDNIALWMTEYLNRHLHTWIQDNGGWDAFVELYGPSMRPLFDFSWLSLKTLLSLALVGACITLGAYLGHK
Sequence of Mcl-1 (Q07820 whole entry): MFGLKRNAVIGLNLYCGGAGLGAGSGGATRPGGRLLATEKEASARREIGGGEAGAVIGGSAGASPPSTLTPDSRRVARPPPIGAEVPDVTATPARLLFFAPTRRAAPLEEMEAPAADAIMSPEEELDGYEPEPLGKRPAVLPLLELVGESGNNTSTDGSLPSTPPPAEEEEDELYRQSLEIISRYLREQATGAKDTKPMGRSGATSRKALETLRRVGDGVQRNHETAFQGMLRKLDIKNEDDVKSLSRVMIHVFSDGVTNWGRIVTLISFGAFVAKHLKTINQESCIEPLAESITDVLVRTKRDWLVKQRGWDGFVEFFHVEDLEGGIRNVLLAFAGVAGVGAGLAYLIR
Sequence of Bcl-xL (Homo sapiens, UniProt Q07817) (Q07817 whole entry): as the sequence (Q64373 whole entry) above, with E40G, A43S, R45M, S168A, D193E counted along it

`Cc1c(S(C)(=O)=O)c(-c2cc(F)cc(N3CCN(c4ccc(NS(=O)(=O)c5ccc(N[C@H](CCN6CCC(O)CC6)CSc6ccccc6)c(S(=O)(=O)C(F)(F)F)c5)cc4)CC3)c2)c(-c2ccc(Cl)cc2)n1C(C)C` [BM-1197]: the IC50 in the data set on H211 worked out at 6 ± 5 nM; on Bcl-xL [1], 5.2 ± 0.6 nM; on Bcl-2, 3.5 ± 0.7 nM; in [2] (Mus musculus, MEF, 72 h, 3 days, WST assay), 5 ± 3 nM; in the data set with H1963 it was 5 ± 2 nM; in the data set on DMS79, 54 ± 30 nM. The IC50 in the data set with H1417 was 3 ± 1 nM; in the data set on H889, 82 ± 20 nM; in the data set with H187 it was 31 ± 4 nM; with SW1271 it was 306 ± 116 nM; in the data set on DMS273 it was above 2000 nM. At Mcl-1 (at 2 µM), the “binding to Mcl-1” value was “fails to bind”. At Mcl-1 (versus Bcl-2 and Bcl-xL), the “selectivity over Mcl-1” value is listed as > 1,000 fold. Moreover, the Ki is below 1 nM on Bcl-xL [1]; < 1 nM and 0.7 nM at Bcl-2. Moreover, the “times more potent than ABT-263 in inhibition of cell growth” value in data set [2] (MCL1−/− cells) is recorded as around 8 times. Further, in the data set on platelets (15 mg/kg IV bolus, at 24 h), the lowest platelet count worked out at 96000 µL⁻¹. Moreover, in the data set with platelets (repeated daily or weekly intravenous doses in efficacy experiments), the bleeding result is listed as “did not observe any bleeding”. The “insensitive cell lines in which depletion of MCL1 dramatically enhanced inhibitory activity” value in data set [3] was 4 of 5. Further, the “thermal stability of Bcl-xL protein” value at Bcl-xL [4] (1 µM, 1 h) is given as “enhanced”. In addition, at Bcl-xL [4] (1 h treatment), the “lowest concentration that efficiently stabilized BCL-xL protein” value was 16 nM.

The record behind these values is PMC4047118, “BM-1197: A Novel and Specific Bcl-2/Bcl-xL Inhibitor Inducing Complete and Long-Lasting Tumor Regression In Vivo” (PLoS ONE, 2014).
